Data reported in US20100083405A1, “Method For Controlling Seed Germination In Non-Dormant Seeds And Use Thereof” (priority 2008, published 2010).

Legend:
[1] = system: HA-ABI5; experiment: HA-ABI5 mobility/phosphorylation (Western blot) in WT/35S::HA-ABI5 lines transformed with ind::HA-PKABA1; assay type: in vivo, Arabidopsis; details: excess GA in the medium, inducer present
Experimental: (§1) The methods used were as described in Lopez-Molina et al., 2001, above.
The mobility differences of HA-ABI5 protein isolated from WT/35S::HA-ABI5 lines transformed with a ind::HA-PKABA1 DNA construct are analyzed by Western blot under the indicated germination conditions. As observed upon ABA treatment, induction of HA-PKABA1 protein triggered ABI5 phosphorylation, detected as a slower ABI5 protein mobility, which could be eliminated upon phosphatase treatment (FIG. 4B).

[2] = system: ABI5; experiment: ABI5 protein levels (Western blot) in gal-3 seeds; assay type: in vivo, Arabidopsis; details: gal-3 seeds treated with GA, as early as 48 hours after imbibition
[3] = system: WT/35S::HA-ABI5 seeds; experiment: Germination assay, WT/35S::HA-ABI5 seeds; assay type: in vivo, Arabidopsis
From the text: (§2) Wild type (WT) Arabidopsis (Columbia ecotype) was used. The transgenic Arabidopsis line (Ler ecotype) constitutively overexpressing and accumulating ABI5 protein fused to hemagglutinin (HA) peptide tag (referred to as WT/35S::HA-ABI5 plants) was generated as described in Lopez-Molina et al., 2001, above. Transgenic Arabidopsis lines were generated using the Agrobacterium tumefaciens vacuum-infiltration method (Bechtold and Pelletier, 1998, Methods Mol. Biol. 82, 259-266). Seeds (T1) from infiltrated plants were plated in selection medium as described (Zuo et al., 2000, above; Lopez-Molina et al., 2001, above). Non-dormant seeds are used in absence of seed stratification procedure. The infiltration in the plant ovule is performed following the standard “Floral Dip” (Arabidopsis protocol Edited by J M Martinez-Zapater and Julio Salina. Humana Press, “In Planta Agrobacterium-Mediated Transformation of Adult Arabidopsis thaliana Plants by Vacuum infiltration”, Page 259).
(§3) When seeds are sown under “normal conditions” it refers to conditions where seeds are imbibed in a standard germination medium and provided with light (germination assay condition below). “ABA conditions” and “low GA conditions” are respectively conditions where ABA (e.g. 5 μM) and paclobutrazol (e.g. 5 μM, PAC), an inhibitor of GA synthesis, are added to the medium. […]

[4] = system: HA-ABI5; experiment: HA-ABI5 mobility/phosphorylation (Western blot) in WT/35S::HA-ABI5 seeds; assay type: in vivo, Arabidopsis
Experimental: as §1
Thus, low GA levels also stimulate ABI5 activity and phosphorylation. […] An antibody to HA was used to reveal HA-ABI5 protein. λ phosphatase was inactivated by heat (65° C. for 20 min).

[5] = system: WT/35S::HA-ABI5 plants transformed with the ind::HA-PKABA1 DNA construct; experiment: Germination assay, WT/35S::HA-ABI5 transformed with ind::HA-PKABA1; assay type: in vivo, Arabidopsis
Experimental: All seed batches compared in this study were harvested on the same day from plants grown side by side (i.e. identical environmental conditions). Dry siliques were obtained about 8 weeks after planting and left for a further 4 weeks at room temperature prior to seed harvesting. Seeds were then permanently stored at 4° C. Seeds obtained in this manner lacked dormancy. A minimum of three independently grown seed batches were used for measuring percent TR and ER. For TR and ER assays, seeds were surface sterilized as described in Lopez-Molina and Chua, 2000, above, and sown in plates with MS medium containing 0.8% (wt/vol.) Bacto-Agar (Applichem). Plates were incubated in a climate-controlled room (20-25° C., 16 h light/day, light intensity 80 ME/m^2/s, humidity 70%). Between 100 and 300 seeds were examined with a Stemi 2000 (Zeiss) stereomicroscope and photographed with a high-resolution digital camera (Canon Power G6, 7.1 Megapixels) at different times of seed imbibition. Photographs were enlarged electronically for measurement of TR and ER.
The first primer contains an XhoI site and the HA sequence (MYPYDVPDYASL (SEQ ID NO: 5) of SEQ ID NO:10), while the second contains a SpeI site. Both restriction sites were used for cloning into a plasmid pER8 (AN AF309825) such as described in Zuo et al., 2000, Plant J., 24, 265-273. […]

[6] = system: HA-PKABA1; experiment: HA-PKABA1 protein levels (Western blot) in seeds transformed with ind::HA-PKABA1; assay type: in vivo, Arabidopsis; details: 50 μM 17β-estradiol, 48 h after seed imbibition, normal conditions
From the text: The first primer contains an XhoI site and the HA sequence (MYPYDVPDYASL (SEQ ID NO: 5) of SEQ ID NO:10), while the second contains a SpeI site. Both restriction sites were used for cloning into a plasmid pER8 (AN AF309825) such as described in Zuo et al., 2000, Plant J., 24, 265-273. The resulting ind::HA-PKABA1 binary vector was then transformed into previously described WT/35S::HA-ABI5 line (Zuo et al., 2000, above; Lopez-Molina et al., 2001, above). As a negative control, WT plants were transformed with the same ind::HA-PKABA1 construct.

[7] = system: WT seed; experiment: Germination assay, WT seeds; assay type: in vivo, Arabidopsis; details: low PAC concentrations (0.125 μM)
From the text: as §2, §3

[8] = system: ABI5; experiment: ABI5 mRNA and protein levels (Northern and Western blot) in WT seeds; assay type: in vivo, Arabidopsis
Experimental: Total RNA extraction was performed as described by Vicient and Delseny, 1999, Anal. Biochem., 268, 412-413. Northern blot hybridizations were by standard procedures; RNA immobilized on membranes was stained with methylene blue and used as a loading control (Sambrook et al., 1989, above). For ABI5, full length ORF DNA probe (SEQ ID NO: 1) were amplified from cDNA with 5′[…] (SEQ ID NO: 8) 5′ […] (SEQ ID NO: 9).
The mRNA and protein expression of ABI5 was characterized in WT (Columbia ecotype) seeds at different times after their imbibition.
Under normal conditions, ABI5 mRNA and protein levels decreased from peak levels in WT dry seeds (DS) to undetectable levels 24 h to 48 h after imbibition as shown respectively by Northern blot (2 μg of total RNA per lane) and Western blot analyses (10 μg of total protein per lane), where protein extracts were stained with red Ponceau prior to incubation with antibodies against ABI5 (Ponceau) (FIGS. 2A and 2B) (Lopez-Molina et al., 2001, above).

[9] = system: WT/35S::HA-ABI5 seeds; details: low ABA concentration 0.5 μM; cited from earlier work
[10] = system: HA-ABI5; details: low ABA concentration 0.5 μM; cited from earlier work
[11] = target: T1, HA-ABI5, Q9SJN0
T1 chain: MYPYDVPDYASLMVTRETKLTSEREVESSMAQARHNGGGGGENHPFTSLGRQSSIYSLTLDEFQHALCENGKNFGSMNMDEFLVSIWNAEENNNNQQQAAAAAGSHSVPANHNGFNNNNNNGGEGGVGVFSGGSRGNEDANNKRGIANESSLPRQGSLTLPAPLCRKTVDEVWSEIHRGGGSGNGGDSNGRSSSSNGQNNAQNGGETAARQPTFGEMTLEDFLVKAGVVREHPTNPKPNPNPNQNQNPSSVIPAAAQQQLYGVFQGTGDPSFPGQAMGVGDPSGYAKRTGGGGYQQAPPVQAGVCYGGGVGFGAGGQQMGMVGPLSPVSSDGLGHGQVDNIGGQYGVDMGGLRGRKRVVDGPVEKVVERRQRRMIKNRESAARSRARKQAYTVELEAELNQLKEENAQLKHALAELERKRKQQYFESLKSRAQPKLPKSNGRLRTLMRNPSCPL

[12] = GA 50 μM added to the germination medium with ABA

What does the source list for gibberellins [GA]?
HA-PKABA1-dependent phosphorylation of ABI5 [1]: did not prevent HA-PKABA1-dependent phosphorylation of ABI5; ABI5 protein [2]: could not be detected; repression of seed germination imposed by ABA [3, 12]: did not overcome the repression of seed germination imposed by ABA; ABA-dependent ABI5 phosphorylation [4, 12]: did not alter ABA-dependent ABI5 phosphorylation; inducer-imposed germination arrest ([5]; additional GA 50 μM in the medium, inducer present): did not counteract the inducer-imposed arrest

Which results are given for C[C@]12CC[C@@H]3c4ccc(O)cc4CC[C@H]3[C@@H]1CC[C@@H]2O [17β-estradiol]?
germination after removal of the inducer ([5]; 24 h to 56 h upon transfer to medium without inducer (50 μM before)): 100%; HA-PKABA1 protein levels [6]: could be detected only in presence of the inducer

With CC(C)(C)[C@@H](O)[C@@H](Cc1ccc(Cl)cc1)n1cncn1 (racemic) [PAC, paclobutrazol] as the molecule, how does the WT seed germination [7] read?
The WT seed germination was “do not prevent WT seed germination”.

And the seeds germinated ([3]; after one week on 0.125 μM PAC)?
Its seeds germinated is “less than 20%”.

And the “HA-ABI5 migration in SDS-PAGE gels” value ([4]; PAC 0.125 μM)?
The value was “slower HA-ABI5 migration”.

And the “ABI5 expression (mRNA and protein)” value ([8]; 5 μM PAC, up to 96 hours after imbibition)?
The value was “increased and maintained ABI5 expression”.

What does the source list for CC1=CC(=O)CC(C)(C)[C@@]1(O)/C=C/C(C)=C\C(=O)O [ABA, abscisic acid]?
germination response [9]: hypersensitive responses; ABI5 mRNA and protein expression ([8]; ABA 5 μM, after imbibition): stimulated; HA-ABI5 phosphorylation [10]: triggered HA-ABI5 phosphorylation

B1: HA-PKABA1 (protein)
chain: MYPYDVPDYASLMDRYEVVRDIGSGNFGVAKLVRDVRTREHFAVKFIERGHKIDEHVQREIMNHRSLKHPNIIRFKEVVLTPTHLAIVMEYASGGELFQRICNAGRFSEDEGRFFFQQLISGVSYCHSMQVCHRDLKLENTLLDGSVAPRLKICDFGYSKSSVLHSQPKSTVGTPAYIAPEVLSRREYDGKVADVWSCGVTLYVMLVGAYPFEDPDEPRNFRKTIARILSVQYSVPDYVRVSMDCIHLLSRIFVGNPQQRITIPEIKNHPWFLKRLPVEMTDEYQRGMQLADMNTPSQSLEEAMAIIQEAQKPGHNALGLAGQVACLGSMDLDDIDFDVDDIDIENSGDFVCPL
Which “ABI5 phosphorylation in planta, seen as slower HA-ABI5 mobility on Western blot (SDS-PAGE), sensitive to phosphatase” value [11] does the source give for B1 here?
Its value is “induction of HA-PKABA1 protein triggered ABI5 phosphorylation, detected as a slower ABI5 protein mobility, which could be eliminated upon phosphatase treatment”.
